{
  "source": "patent US20240252517A1",
  "about": "“MINERALOCORTICOID RECEPTOR ANTAGONISTS FOR THE PREVENTION AND/OR TREATMENT OF A CORONAVIRUS INFECTION” (Imaginatives Group Limited, priority 2021, published 2024)",
  "key": {"[1]": {"test_system": "SARS-CoV-2"}, "[2]": {"test_system": "COVID-19", "details": "cited from earlier work"}, "[3]": {"test_system": "endothelial cells", "details": "MR activation; result in words; cited from earlier work"}},
  "data": [
    {"smiles": "C[C@@H]1C[C@H]2[C@@H]3CCC4=CC(=O)C=C[C@]4(C)[C@@]3(F)[C@@H](O)C[C@]2(C)[C@@]1(O)C(=O)CO", "note": "[HIDEX, dexamethasone]", "values": [
      {"measurement": "Resorption of pneumonia on day 5 (number of patients)", "setting": "[1]; 120 h", "result": 15},
      {"measurement": "Fasting glucose", "setting": "[1]; after 5 d, mean ± SD, baseline HIDEX 5.9 ± 2.0, SPIDEX 6.89 ± 3.22", "result": "11.69 ± 6.21", "unit": "mmol/L"},
      {"measurement": "Breath rate/min", "setting": "[1]; after 5 d, mean ± SD, baseline HIDEX 24.8 ± 4.6, SPIDEX 24.2 ± 4.1", "result": "18.4 ± 3.1", "unit": "min⁻¹"},
      {"measurement": "CRP", "setting": "[1]; after 5 d, mean ± SD, baseline HIDEX 72.4 ± 61.7, SPIDEX 65.75 ± 50.9", "result": "28.1 ± 22.9", "unit": "mg/L"},
      {"measurement": "HR/min", "setting": "[1]; after 5 d, mean ± SD, baseline HIDEX 84.7 ± 10.8, SPIDEX 83.8 ± 11.8", "result": "89.1 ± 10.6", "unit": "min⁻¹"},
      {"measurement": "BPdiast., mm Hg", "setting": "[1]; after 5 d, mean ± SD, baseline HIDEX 86 ± 8.6, SPIDEX 85.25 ± 12.40", "result": "89.0 ± 10.6", "unit": "mm Hg"},
      {"measurement": "Blood oxygen, %", "setting": "[1]; after 5 d, mean ± SD, baseline HIDEX 91.8 ± 3.6, SPIDEX 91.7 ± 3.3", "result": "94.1 ± 3.0", "unit": "%"},
      {"measurement": "D-dimer", "setting": "[1]; after 5 d, mean ± SD, baseline HIDEX 736.7 ± 680.6, SPIDEX 755.5 ± 606.1", "result": "574.8 ± 306.4", "unit": "ng/mL"},
      {"measurement": "CRP, mg/l (range in brackets)", "setting": "[1]; after 5 d, range, baseline HIDEX 6.4-204, SPIDEX 10.2-209", "result": "(2.8-83.5) mg/l"},
      {"measurement": "D-dimer, ng/ml (range in brackets)", "setting": "[1]; after 5 d, range, baseline HIDEX 85-2500, SPIDEX 145-2500", "result": "(38-2800) ng/ml"},
      {"measurement": "Fasting blood glucose compared to baseline", "setting": "[1]; after 5 d, result in words", "result": "significantly elevated"},
      {"measurement": "Loss of smell/taste, % of patients", "setting": "[1]; after 5 days treatment, baseline 85% (spironolactone/low dose dexamethasone), 82.5% (high dose dexamethasone)", "result": 75, "unit": "%"},
      {"measurement": "BPsyst., mm Hg", "setting": "[1]; after 5 d of treatment, mean ± SD, baseline HIDEX 139.6 ± 15.5, SPIDEX 137.5 ± 22.5", "result": "150.1 ± 20.1", "unit": "mm Hg"},
      {"measurement": "Deaths (number of patients)", "setting": "[1]; of 40 patients per group", "result": 1},
      {"measurement": "Deterioration of the Chest X-ray picture assessed on the 5th day (number of patients)", "setting": "[1]; of 40 patients per group", "result": 4}
    ]},
    {"smiles": "C[C@]12CCC(=O)C=C1C=C[C@@H]1[C@@H]2CC[C@@]2(C)[C@H]1CC[C@@]21CCC(=O)O1", "note": "[canrenone]", "values": [
      {"measurement": "Patients requiring ventilation", "setting": "[2]; group B given canrenone, group A 49%", "result": 20, "unit": "%"},
      {"measurement": "Mortality", "setting": "[2]; group B given canrenone, group A conventional treatment 36%", "result": 13, "unit": "%"},
      {"measurement": "D-Dimer levels", "setting": "[2]; result in words, rose significantly in control group", "result": "fell"}
    ]},
    {"smiles": "CC(=O)S[C@@H]1CC2=CC(=O)CC[C@]2(C)[C@H]2CC[C@@]3(C)[C@@H](CC[C@@]34CCC(=O)O4)[C@H]12", "note": "[spironolactone]", "values": [
      {"measurement": "Exocytosis of Weibel-Palade bodies / Von Willebrand Factor", "setting": "[3]", "result": "blocked"}
    ]}
  ]
}
